IC50 data for 58 compounds are collected here from patent US8575203B2, “Chemical compounds” (Boehringer Ingelheim International GmbH, priority 2010, dated 2013).

Recombinant human PDK1 enzyme (aa 52-556), sequence (O15530 52-556): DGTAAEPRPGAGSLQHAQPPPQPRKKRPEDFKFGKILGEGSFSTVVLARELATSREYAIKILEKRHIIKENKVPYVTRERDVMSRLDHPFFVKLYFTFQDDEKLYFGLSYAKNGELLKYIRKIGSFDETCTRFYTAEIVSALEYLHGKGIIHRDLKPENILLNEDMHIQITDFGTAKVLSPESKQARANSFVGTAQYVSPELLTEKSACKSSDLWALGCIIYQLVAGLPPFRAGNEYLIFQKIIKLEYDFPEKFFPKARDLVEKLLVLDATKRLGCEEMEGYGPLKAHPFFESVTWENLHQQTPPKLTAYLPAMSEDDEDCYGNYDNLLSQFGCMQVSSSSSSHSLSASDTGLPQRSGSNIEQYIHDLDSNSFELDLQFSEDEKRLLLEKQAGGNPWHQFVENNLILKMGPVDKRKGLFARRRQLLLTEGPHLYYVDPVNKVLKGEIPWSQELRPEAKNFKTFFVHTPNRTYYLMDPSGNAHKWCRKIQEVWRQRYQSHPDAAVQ

For this test, the target named is Recombinant human PDK1 enzyme (aa 52-556) (Homo sapiens (Human), UniProt O15530). Description: PDK1 kinase assay. The note with it: in vitro kinase assay, His6-PDK1 (aa 52-556), PDKtide, P33-ATP. Type of test: biochemical. The procedure: The activity of the compounds according to the invention on the kinase PDK1 which inhibits the signal transduction pathway is determined in an in vitro kinase assay with recombinantly prepared protein:
Recombinant human PDK1 enzyme (aa 52-556) linked at its N-terminal end to His6 is isolated from baculovirus-infected insect cells. Purified enzyme may be obtained for example from the University of Dundee, Scotland. The following components are combined in a well of a 96-well round-based dish (Greiner bio-one, No. 650101): • 15 μL of compound to be tested in varying concentrations (e.g. starting at 10 μM, and diluted in steps of 1:5) in APT buffer (50 mM Tris/Cl pH 7.5; 0.05% β-mercaptoethanol; 10 mM Mg-acetate; 0.0166% Tween 20; 3.33% DMSO) • 15 μL His6-PDK1 (aa 52-556) 3.33 ng/well) and PDKtide ([…]), synthesised by Pepceuticals Limited, Nottingham, United Kingdom; 25 μM final concentration); His6-PDK1 and PDKtide are together diluted accordingly in assay buffer (50 mM tris pH 7.5, 0.05% β-mercaptoethanol, 10 mM Mg-acetate); PDKtide is present in this mixture as an 83.3 μM solution. These 30 μl are routinely incubated for 30 min at RT. • 20 μL ATP solution (25 μM ATP with 1.0 μCi/well gamma-P33-ATP). The final concentration of Tween 20 is 0.005%.
The reaction is started by adding the ATP solution and the mixture is incubated for 90 min at RT. At the start of the reaction the dishes are shaken gently. The reaction is stopped by the addition of 50 μL/well of 500 mM phosphoric acid (H3PO4) and incubated for about 20 min at RT. The precipitate is transferred by harvesting onto filter plates (96-well microtitre filter plate: UniFilter GF/C; Perkin Elmer; No. 6005174), then washed 6 times with 50 mM H3PO4 and dried at 60° C. Then the plate is stuck down with sealing tape, 25 μL/well of scintillation solution (Microscint 0; Perkin Elmer; No. 6013611) are added and the amount of P33 precipitated is measured using the Wallac Betacounter. The measured data are evaluated using Graphpad Prism software.
A word on the IC50: it is the point on the concentration scale where inhibition reaches its midpoint. On to `COc1ccc(CN(C)c2ncnc3ccc(C#CCNC(=O)c4cccn(Cc5ccc(F)c(F)c5)c4=O)cc23)cc1` [II-52], for which the IC50 is 6 nM.

Turning to `COCCCNc1ncnc2ccc(C#CCNC(=O)c3cncn(Cc4ccc(F)c(F)c4)c3=O)cc12` [II-14], the IC50 was 158 nM.

On to `O=C(NCC#Cc1ccc2ncnc(NC3CCN(CCO)CC3)c2c1)c1cncn(Cc2ccc(F)c(F)c2)c1=O` [II-24], for which the IC50 stood at 77 nM.

Regarding `CN(Cc1ccccc1)c1ncnc2ccc(C#CCNC(=O)c3cncn(Cc4ccc(F)c(F)c4)c3=O)cc12` [II-5], the IC50 came out at 16 nM.

For `CCN(CC)CCCOc1ccnc2ccc(C#CCNC(=O)c3cncn(Cc4ccc(F)c(F)c4)c3=O)cc12` [I-125.13], the IC50 was found to be 6 nM.

As for `CN1CC[C@@H](COc2ccnc3ccc(C#CCNC(=O)c4cccn(Cc5cc(F)c(F)c(F)c5)c4=O)cc23)C1` [I-125.12], the IC50 is 6 nM.

For the compound `O=C(NCC#Cc1ccc2ncnc(NC3CCOCC3)c2c1)c1cncn(Cc2ccc(F)c(F)c2)c1=O` [II-21], the half-inhibitory concentration (IC50) worked out at 515 nM.

Regarding `CN1CCC(Oc2ccnc3ccc(C#CCNC(=O)c4cccn(Cc5ccc(F)c(F)c5)c4=O)cc23)CC1` [I-112], the IC50 came out at 71 nM.

For the compound `CCOc1ncnc2ccc(C#CCNC(=O)c3cncn(Cc4ccc(F)c(F)c4)c3=O)cc12` [I-7], the IC50 was found to be 94 nM.

For the compound `O=C(NCC#Cc1ccc2ncc(-c3ccccc3)cc2c1)c1cncn(Cc2ccc(F)c(F)c2)c1=O` [I-81], the half-maximal inhibitory concentration (IC50) was determined as 66 nM.

As for `CN(CC1CCCCC1)c1c(C#N)cnc2ccc(C#CCNC(=O)c3cccn(Cc4ccc(F)c(F)c4)c3=O)cc12` [II-99], the half-inhibitory concentration (IC50) came out at 683 nM.

Take `CCN1CCN(C(=O)c2cnc3ccc(C#CCNC(=O)c4cncn(Cc5ccc(F)c(F)c5)c4=O)cc3c2)CC1` [II-78]: the IC50 stood at 402 nM.

With `CN1CCC(NC(=O)c2cnc3ccc(C#CCNC(=O)c4cncn(Cc5ccc(F)c(F)c5)c4=O)cc3c2)C1` (stereo not shown) [II-87], the IC50 came to 24 nM.

With `O=C(NCC#Cc1ccc2nccc(OC3CCNCC3)c2c1)c1cccn(Cc2ccc(F)c(F)c2)c1=O` [I-114], the IC50 came to 23 nM.

For `CN1CCN(CCCOc2ccnc3ccc(C#CCNC(=O)c4cncn(Cc5ccc(F)c(F)c5)c4=O)cc23)CC1` [I-100], the IC50 was 14 nM.

Take `N#Cc1cnc2ccc(C#CCNC(=O)c3cccn(Cc4ccc(F)c(F)c4)c3=O)cc2c1NCC1CCCCC1` [II-97]: the IC50 stood at 1060 nM.

Take `COCCN1CCC(Nc2cnc3ccc(C#CCNC(=O)c4ccnn(Cc5ccc(F)c(F)c5)c4=O)cc3n2)CC1` [I-53]: the IC50 turned out to be 8 nM.

Take `CC(C)Oc1ccnc2ccc(C#CCNC(=O)c3cncn(Cc4ccc(F)c(F)c4)c3=O)cc12` [I-97]: the IC50 was determined as 38 nM.

Regarding `Cc1c(C#CCNC(=O)c2cncn(Cc3ccc(F)c(F)c3)c2=O)ccc2ncc(C(=O)N(C)C)cc12` [II-70], the IC50 turned out to be 185 nM.

In the case of `O=C(NCC#Cc1ccc2ncc(N[C@H]3CC[C@H](N4CCN(CC5CC5)CC4)CC3)nc2c1)c1cncn(Cc2ccc(F)c(F)c2)c1=O` [I-42], the IC50 was determined as 3 nM.

With `O=C(NCC#Cc1ccc2ncnc(C3=CCNCC3)c2c1)c1cncn(Cc2ccc(F)c(F)c2)c1=O` [II-67], the IC50 came out at 96 nM.

As for `CN1CCC(Oc2ccnc3ccc(C#CCNC(=O)c4cncn(Cc5ccc(F)c(F)c5)c4=O)cc23)CC1` [I-111], the half-maximal inhibitory concentration (IC50) was determined as 29 nM.

With `CN(C)CCNc1cnc2ccc(C#CCNC(=O)c3cncn(Cc4ccc(F)c(F)c4)c3=O)cc2n1` [I-12], the IC50 amounted to 35 nM.

With `CN1CCCC(NC(=O)c2cnc3ccc(C#CCNC(=O)c4cncn(Cc5ccc(F)c(F)c5)c4=O)cc3c2)C1` (stereo not shown) [II-80], the IC50 is 64 nM.

Take `CNc1ncnc2ccc(C#CCNC(=O)c3cc(OC)nn(Cc4ccc(F)c(F)c4)c3=O)cc12` [II-59]: the IC50 stood at 9 nM.

Regarding `CN(Cc1cccc2ncccc12)c1ncnc2ccc(C#CCNC(=O)c3cccn(Cc4ccc(F)c(F)c4)c3=O)cc12` [II-46], the IC50 was determined as 6 nM.

As for `CN1CCC(Oc2cnc3ccc(C#CCNC(=O)c4cncn(Cc5ccc(F)c(F)c5)c4=O)cc3n2)CC1` [I-38], the IC50 came out at 56 nM.

With `COCCN1CCC(Nc2cnc3ccc(C#CCNC(=O)c4cncn(Cc5ccc(F)c(F)c5)c4=O)cc3n2)CC1` [I-37], the IC50 stood at 5 nM.

With `CCN1CCC(Nc2cnc3ccc(C#CCNC(=O)c4cncn(Cc5ccc(F)c(F)c5)c4=O)cc3c2)CC1` [I-71], the IC50 worked out at 4 nM.

Consider `CN1CCCC1CCNc1ncnc2ccc(C#CCNC(=O)c3cccn(Cc4ccc(F)c(F)c4)c3=O)cc12` (stereo not shown) [II-39], for which the IC50 was determined as 137 nM.

With `CN(C)CCCCOc1ccnc2ccc(C#CCNC(=O)c3cncn(Cc4ccc(F)c(F)c4)c3=O)cc12` [I-125.3], the IC50 amounted to 5 nM.

On to `CN(C)CCOc1ccnc2ccc(C#CCNC(=O)c3cccn(Cc4ccc(F)c(F)c4)c3=O)cc12` [I-98], for which the IC50 stood at 25 nM.

Regarding `CN(C)CC(C)(C)COc1ccnc2ccc(C#CCNC(=O)c3cccn(Cc4ccc(F)c(F)c4)c3=O)cc12` [I-103], the IC50 worked out at 33 nM.

As to `CN1CCC(Nc2cnc3ccc(C#CCNC(=O)c4cncn(Cc5ccc(F)c(F)c5)c4=O)cc3c2)CC1` [I-70], the IC50 is 1 nM.

`CN(C)CC(O)COc1ccnc2ccc(C#CCNC(=O)c3cncn(Cc4ccc(F)c(F)c4)c3=O)cc12` (stereo not shown) [I-104]: the IC50 amounted to 71 nM.

As to `O=C(NCC#Cc1ccc2nccc(NC3CC3)c2c1)c1cncn(Cc2ccc(F)c(F)c2)c1=O` [I-115], the IC50 amounted to 780 nM.

With `CN1CCC[C@@H](COc2ccnc3ccc(C#CCNC(=O)c4cccn(C(CO)c5cc(F)c(F)c(F)c5)c4=O)cc23)C1` (stereo partly shown) [I-125.21], the IC50 was 2 nM.

As for `CCN1CCC(Nc2cnc3ccc(C#CCNC(=O)c4cncn(Cc5ccc(F)c(F)c5)c4=O)cc3n2)CC1` [I-22], the 50% inhibitory concentration (IC50) amounted to 6 nM.

Turning to `CN(C)CCCOc1ccnc2ccc(C#CCNC(=O)c3cccn(Cc4cc(F)c(F)c(F)c4)c3=O)cc12` [I-125.2], the IC50 was 5 nM.

With `CN1CC(NC(=O)c2cnc3ccc(C#CCNC(=O)c4cncn(Cc5ccc(F)c(F)c5)c4=O)cc3c2)C1` [II-81], the IC50 worked out at 20 nM.

Turning to `CN(c1ncnc2ccc(C#CCNC(=O)c3cncn(Cc4ccc(F)c(F)c4)c3=O)cc12)C(C)(C)C` [II-19], the IC50 came to 500 nM.

On to `CC(N)CCOc1ccnc2ccc(C#CCNC(=O)c3cccn(Cc4ccc(F)c(F)c4)c3=O)cc12` (stereo not shown) [I-125.7], for which the IC50 worked out at 32 nM.

As for `CCN(CC)c1ncnc2ccc(C#CCNC(=O)c3cccn([C@@H](C)c4ccccc4)c3=O)cc12` [II-55], the IC50 was 60 nM.

For the compound `CNc1ncnc2ccc(C#CCNC(=O)c3cccn(Cc4ccsc4)c3=O)cc12` [II-26], the IC50 came to 199 nM.

As for `COCCN1CCC(Nc2cnc3ccc(C#CCNC(=O)c4cccn([C@@H](C)c5ccc(F)c(F)c5)c4=O)cc3c2)CC1` [I-78], the IC50 came to 9 nM.

For the compound `CN(C)CC(O)COc1ccnc2ccc(C#CCNC(=O)c3cccn(Cc4ccc(F)c(F)c4)c3=O)cc12` (stereo not shown) [I-105], the IC50 worked out at 47 nM.

As for `CN(c1c(C#N)cnc2ccc(C#CCNC(=O)c3cccn(Cc4ccc(F)c(F)c4)c3=O)cc12)C1CCCCC1` [II-95], the IC50 was determined as 544 nM.

`O=C(NCC#Cc1ccc2ncc(NC3CCN(C4COC4)CC3)nc2c1)c1cncn(Cc2ccc(F)c(F)c2)c1=O` [I-56]: the IC50 was determined as 3 nM.

Regarding `O=C(NCC#Cc1ccc2ncc(NC3CCN(CCO)CC3)nc2c1)c1cncn(Cc2ccc(F)c(F)c2)c1=O` [I-9], the IC50 turned out to be 3 nM.

Take `CN1CC(Nc2ncnc3ccc(C#CCNC(=O)c4cncn(Cc5ccc(F)c(F)c5)c4=O)cc23)C1` [II-2]: the IC50 stood at 171 nM.

Turning to `CN1CCCC(Nc2cnc3ccc(C#CCNC(=O)c4cncn(Cc5ccc(F)c(F)c5)c4=O)cc3n2)C1` (stereo not shown) [I-21], the IC50 was found to be 149 nM.

As for `CCN1CC[C@H](Nc2cnc3ccc(C#CCNC(=O)c4cncn(Cc5ccc(F)c(F)c5)c4=O)cc3n2)[C@H](F)C1` [I-47], the IC50 worked out at 4 nM.

As to `CC(c1ccc(F)c(F)c1)n1cccc(C(=O)NCC#Cc2ccc3nccc(OC[C@H]4CCN(C)C4)c3c2)c1=O` (stereo partly shown) [I-125.10], the IC50 is 3 nM.

For `O=C(NCC#Cc1ccc2nccc(OCC3CCOC3)c2c1)c1cccn(C(CO)c2ccc(F)c(F)c2)c1=O` (stereo not shown) [I-125.4], the IC50 is 12 nM.

For `CN1CCN(C(=O)c2cnc3ccc(C#CCNC(=O)c4cncn(Cc5ccc(F)c(F)c5)c4=O)cc3c2)CC1` [II-84], the IC50 worked out at 405 nM.

`COCCN1CCC(Nc2cnc3ccc(C#CCNC(=O)c4cccn([C@@H](CO)c5ccc(F)c(F)c5)c4=O)cc3n2)CC1` [I-48]: the IC50 was 3 nM.

As for `CN(C)CCCNc1cnc2ccc(C#CCNC(=O)c3cncn(Cc4ccc(F)c(F)c4)c3=O)cc2n1` [I-10], the IC50 stood at 11 nM.

Take `O=C(NCC#Cc1ccc2ncnc(NC3CCN(Cc4ccccc4)CC3)c2c1)c1cncn(Cc2ccc(F)c(F)c2)c1=O` [II-23]: the IC50 was found to be 142 nM.
